Reference: patent US12358921B2, “Antiviral heterocyclic compounds” (priority 2022, dated 2025)

Key:
hMPV A2 TN/94-49 = test: HMPV antiviral assay Method 1 (LLC-MK2 cells, ATP-Lite); type: cell-based; conditions: hMPV A2 TN/94-49, LLC-MK2 cells
Experimental: In vitro HMPV antiviral activity was evaluated using the clinical isolate A2 strain TN 94-49 (obtained from Dr. John Williams, Vanderbilt University, Tennessee) and […] cells (ATCC #CCL-7), an immortalized kidney epithelial cell line from Macaca mulatta. Compounds were resuspended in dimethyl sulfoxide (DMSO) at 10 mM, serially diluted and added to a 384-well source plate. Subsequently, the compounds were diluted and transferred onto 384-well assay plates using the Echo-650 automated liquid handling system (Beckman Coulter, Indiana). The test compounds were assessed in duplicate at a top concentration of 2 μM followed by 2.5-fold serial dilutions to give a total of 10 concentration points. DMSO control wells were also included on the assay plates and were either infected or not, acting as positive and negative controls. A2 TN 94-49 virus infections were performed in-suspension with LLC-MK2 cells. The cells were washed twice with PBS and removed from the cell-culture flask with 0.25% trypsin-EDTA (Thermo Fisher Scientific, MA). The trypsin-EDTA was inactivated by resuspending in 2% fetal bovine serum (FBS) and OptiMEM (ThermoFisher Scientific, MA) containing 1% penicillin-streptomycin. Cells were pelleted by centrifuging for 5 minutes at 800 rpm, the supernatant was removed, and cells were re-suspended and washed in PBS plus 100 μg/mL CaCl2). This step was performed twice. Cells were then re-suspended in serum-free (SF)-OptiMEM containing 4 μg/mL TPCK-Trypsin (Sigma Aldrich, MO), 1% penicillin-streptomycin (ThermoFisher Scientific, MA) and 100 μg/mL CaCl2). Cells were counted and seeded at a density of 5,000 cells/well, 12.5 μL/well. Virus infections were done at a multiplicity of infection (MOI) of 0.005 with 12.5 μL added per well. Virus infections were performed in infection media which contained SF-OptiMEM, 100 μg/mL CaCl2) and 1% penicillin-streptomycin. HMPV viral stocks are suspended in infection media+5% glycerol, thus an equal volume of infection media+5% glycerol was added to uninfected wells to equalize the final % glycerol across all wells of the assay plate. The final concentration of TPCK-trypsin was 2 μg/mL. The assay plates were incubated at 37° C., 5% CO2 for 7 days. After 7 days incubation, 12.5 μL of ATP-Lite (PerkinElmer, MA) was added to each well and the raw luminescence values were determined using the Envision 2104 (Perkin Elmer, MA). The average of the raw luminescence values for the cells and virus only positive control wells was subtracted from all conditions tested and the percent cell health was determined by dividing these values by the average of the cells only negative control wells. EC50 values were then calculated by non-linear regression using a four-parameter curve logistic equation. The curve fit model employed was XLFit Dose Response One Site Model 200: y=(A+(B/(1+((x/C)^D)))), where A is the minimum y value, B is the maximum y value, C is the log EC50value, and D is the slope factor. Method 2: In Vitro HMPV Antiviral Activity was Evaluated Using the Clinical Isolate A2 Strain TN 94-49

[1] = tested on: HUMAN RSV-A (“LONG” STRAIN); test: RSV-A assay (CPE, ATPlite) in Hep-2 cells; type: cell-based; conditions: human respiratory syncytial virus, 120 h, MOI 0.1, 5-day incubation
Method in brief: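 Protection from RSV cytopathic effect read by ATP luminescence (ATPlite) after 5-day culture. Genotype A "Long" virus added at MOI 0.1 to Hep-2 monolayers at 8,000 cells/well, pre-dosed with duplicate 2-fold compound dilutions; controls include infected untreated and uninfected wells. EC50 values binned into ranges.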

| Compound | EC50 (hMPV A2 TN/94-49) | EC50 [1] |
| --- | --- | --- |
| [2H]C([2H])([2H])c1nc2c(OC)cc(C(=O)NC[C@@](O)(c3cccc(F)c3)c3cc4c(c(-c5ccc(F)c(Cl)c5Cl)n3)OC[C@]4(C)C(N)=O)cc2s1 [Example 272] | < 500 nM | < 200 nM |
| COc1cc(C(=O)NC[C@@](O)(c2ccsc2)c2cc3c(c(-c4cc(Cl)c(F)cc4F)n2)OC[C@]3(C)C(N)=O)cc2cn(C3CC3)nc12 [Example 173] | < 500 nM | < 200 nM |
| C[C@]1(C(N)=O)COc2c1cc([C@@](O)(CNC(=O)c1cc(OC(F)F)c3nn(C4CC4)cc3c1)C1CC1)nc2-c1ccc(F)c(F)c1Cl [Example 39] | < 500 nM | < 200 nM |
| COc1cc(C(=O)NC[C@](O)(c2cc3c(c(-c4cccc(S(F)(F)(F)(F)F)c4)n2)OC[C@]3(C)C(N)=O)C(F)(F)F)cc2cn(C3CC3)nc12 [Example 54] | > 500 nM | < 200 nM |
| COc1cc(C(=O)NC[C@](O)(c2cc3c(c(-c4ccc(Cl)c(Cl)c4Cl)n2)OC[C@]3(C)C(N)=O)C2CC2)cc2cn(C3CC3)nc12 [Example 60] | < 500 nM | < 200 nM |
| COc1cc(C(=O)NC[C@@](O)(c2ccccc2)c2cc3c(c(-c4cc(C(F)(F)F)ccc4F)n2)OC[C@]3(C)C(N)=O)cc2cn(C(F)F)nc12 [Example 148] | < 500 nM | < 200 nM |
| Cc1nc2ccc(C(=O)NC[C@@](O)(c3cccc(F)c3)c3cc4c(c(-c5ccc6c(c5Cl)OC(F)(F)O6)n3)OC[C@]4(C)C(N)=O)cc2o1 [Example 284] | < 500 nM | < 200 nM |
| [2H]C([2H])([2H])c1nc2c(OC)cc(C(=O)NC[C@@](O)(c3ccccc3)c3cc4c(c(-c5cc(Cl)c(F)cc5F)n3)OC[C@]4(C)C(N)=O)cc2s1 [Example 155] | < 500 nM | < 200 nM |
| COc1cc(C(=O)NC[C@@](O)(c2ccc(F)cc2)c2cc3c(c(-c4ccc5c(c4Cl)OC(F)(F)O5)n2)OC[C@]3(C)C(N)=O)cc2cc(C(F)(F)F)cnc12 [Example 26] | > 500 nM | < 200 nM |
| COc1cc(C(=O)NC[C@](O)(c2cc3c(c(-c4cc(Cl)c(F)cc4F)n2)OC[C@]3(C)C(N)=O)c2ccccc2F)cc2cn(C(F)F)nc12 [Example 138] | < 500 nM | < 200 nM |
| C[C@]1(C(N)=O)COc2c1cc([C@@](O)(CNC(=O)c1cc(OC3CC3)c3nn(C4CC4)cc3c1)C1CC1)nc2-c1cc(Cl)c(F)cc1F [Example 2] | < 500 nM | < 200 nM |
| [2H]c1c([2H])c([2H])c([C@](O)(CNC(=O)c2cc(OC)c3nn(C4CC4)cc3c2)c2cc3c(c(-c4cc(Cl)c(F)cc4F)n2)OC[C@]3(C)C(N)=O)c([2H])c1[2H] [Example 169] | < 500 nM | < 200 nM |
| COc1cc(C(=O)NC[C@@](O)(c2ccccc2)c2cc3c(c(-c4cc(C(F)(F)F)ccc4F)n2)OC[C@]3(C)C(N)=O)cc2cc(C3CC3)nn12 [Example 149] | < 500 nM | < 200 nM |
| COc1cc(C(=O)NC[C@@](O)(c2ccccc2)c2cc3c(c(-c4ccc5c(c4Cl)OC(F)(F)O5)n2)OC[C@]3(C)C(N)=O)cc2cn(C3CC3)nc12 [Example 251] | < 500 nM | < 200 nM |
| [2H]c1nc2c(OC(F)F)cc(C(=O)NC[C@@](O)(c3ccccc3)c3cc4c(c(-c5cc(Cl)c(F)cc5F)n3)OC[C@]4(C)C(N)=O)cc2cc1C([2H])([2H])[2H] [Example 217] | < 500 nM | < 200 nM |
| COc1cc(C(=O)NC[C@](O)(c2cc3c(c(-c4cc(F)c(F)cc4F)n2)OC[C@]3(C)C(N)=O)C2CC(F)(F)C2)cc2cn(C3CC3)nc12 [Example 31] | < 500 nM | < 200 nM |
| COc1cc(C(=O)NC[C@](O)(c2cc3c(c(-c4cc(Cl)c(F)cc4F)n2)OC[C@]3(C)C(N)=O)c2ccccc2F)cc2cn(C3CC3)nc12 [Example 136] | < 500 nM | < 200 nM |
| COc1cc(C(=O)NC[C@](O)(c2cc3c(c(-c4ccc(F)cc4O)n2)OC[C@]3(C)C(N)=O)C2CC2)cc2cn(C3CC3)nc12 [Example 63] | > 500 nM | < 200 nM |
